Source: ChEMBL document CHEMBL1201862, “PubChem BioAssay data set” (2004)
Active and inactive are the calls of the source.

Tests used:
[1] = viability of uninfected HEp-2 cells – cell-based, HTS, cytotoxicity control for RSV inhibitor project, dose response (AID 2410); format: functional; details: human respiratory syncytial virus
Genome polyprotein [2] = target: Genome polyprotein (Hepatitis C virus, UniProt Q2Q167); assay: disruption of hepatitis C core self-association – biochemical, TR-FRET, dose response (AID 2159); design: species or system Hepacivirus hominis;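 also: blocks dimerization of HCV core protein measured by TR-FRET between tagged core106 pairs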
Bcl-2-like protein 10 [3] = target: T1, Bcl-2-like protein 10 (Homo sapiens, UniProt Q9HD36); assay: Bcl-B/TR3 peptide binding disruption – biochemical, fluorescence polarization, FITC-TR3 peptide, selectivity assay for Bfl-1 inhibitor project, primary screen (AID 748);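 also: fluorescence polarization from a fluorescein-labelled TR3 peptide binding purified Bcl-B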
T1 sequence (Q9HD36 whole entry): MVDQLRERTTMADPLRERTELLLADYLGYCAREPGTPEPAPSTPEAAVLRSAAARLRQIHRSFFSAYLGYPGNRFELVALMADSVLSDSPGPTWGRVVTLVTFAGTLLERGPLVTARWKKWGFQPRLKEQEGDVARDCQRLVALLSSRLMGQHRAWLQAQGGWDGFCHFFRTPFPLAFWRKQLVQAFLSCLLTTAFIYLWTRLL

SUMO-activating enzyme [4] = target: T2, SUMO-activating enzyme (Homo sapiens, UniProt Q9UBT2); assay: blockers of UBC9-mediated SUMO conjugation – biochemical, AlphaScreen, SUMOylation inhibitor project, confirmation (AID 2018); format: functional
SUMO-activating enzyme [5] = target: T2, SUMO-activating enzyme; assay: blockers of SAE1/SAE2–UBC9 SUMO transfer – biochemical, HTRF, uHTS, primary screen (AID 2006); format: protein-complex assay
[6] = target: Protein-tyrosine kinase 2-beta (Homo sapiens, UniProt Q14289);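 also: potency of inhibitors of PYK2 kinase phosphorylation of poly-GT substrate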
[7] = target: T3, Induced myeloid leukemia cell differentiation protein Mcl-1 (Homo sapiens, UniProt Q07820); format: functional
SUMO E1/E2 = SUMO E1/E2 (Homo sapiens, UniProt P63279+Q9UBE0+Q9UBT2); assay: SAR analysis of SUMOylation using HTRF in an in-Vitro dose response assay. [Related pubchem assays (depositor defined):AID2006, AID2011, AID2018, AID2069, AID2658]; format: functional
[8] = target: T4, Voltage-gated N-type calcium channel alpha-1B subunit/Amyloid beta A4 precursor protein-binding family A member 1 (Homo sapiens, UniProt Q00975+Q02410); assay: disruptors of Mint-PDZ/N-type channel peptide interaction – biochemical, HTRF, set 2, SAR follow-up (AID 434980); format: functional
[9] = target: T4, Voltage-gated N-type calcium channel alpha-1B subunit/Amyloid beta A4 precursor protein-binding family A member 1; assay: disruptors of Mint-PDZ/N-type channel peptide interaction – biochemical, HTRF, SAR follow-up (AID 2489); format: functional
[10] = target: DNA (cytosine-5)-methyltransferase 1 (Homo sapiens, UniProt P26358); assay: inhibition of DNA methylation by DNMT1 – biochemical, fluorescent molecular beacon, confirmation (AID 602386); format: functional
Protein Tat = target: T5, Protein Tat (Human immunodeficiency virus type 1 group M subtype B (isolate HXB2)(HIV-1), UniProt P04608); format: functional;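 also: tat binding to TAR RNA read out by fluorescence polarization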
T5 sequence (P04608 whole entry): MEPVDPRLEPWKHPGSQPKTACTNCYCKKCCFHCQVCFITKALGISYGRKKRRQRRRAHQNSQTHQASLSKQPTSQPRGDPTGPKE

[11] = viability loss in THP-1 monocytes – THP-1 cells, cytotoxicity control for Vif-APOBEC3G degradation inhibitor project, dose response (AID 1117359); format: functional; details: THP-1
[12] = target: Epstein-Barr nuclear antigen 1 (Epstein-Barr virus (strain B95-8) (HHV-4) (Human herpesvirus 4), UniProt P03211); assay: inhibition of EBV nuclear antigen 1 DNA binding – biochemical, fluorescence polarization, 1536-well, dose response (AID 2381); design: species or system human gammaherpesvirus 4;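 also: fluorescence polarization of a Cy5 DNA probe bound by EBNA-1 protein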
[13] = target: Lytic switch protein BZLF1 (Epstein-Barr virus (strain B95-8) (HHV-4) (Human herpesvirus 4), UniProt P03206); assay: inhibition of BZLF1 ZTA DNA binding – biochemical, fluorescence polarization, Epstein-Barr virus, 1536-well, counter-screen for EBNA-1 inhibitor project, dose response (AID 2377); design: species or system human gammaherpesvirus 4;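 also: fluorescence polarization of Cy5-labelled ZRE DNA probe bound by purified Zta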
Streptokinase A = target: T6, Streptokinase A (Streptococcus pyogenes serotype M1, UniProt P10520); assay: Absorbance Microorganism-Based Dose Response Follow up to Identify Inhibitors of Streptokinase Expression. [Related pubchem assays: 1677 (Project Summary), 1915, 1914, 1902 (Retest at Dose), 1900 (Counter Screen), 1662 (Primary HTS)]; format: functional, Streptococcus pyogenes M1 GAS
T6 sequence (P10520 whole entry): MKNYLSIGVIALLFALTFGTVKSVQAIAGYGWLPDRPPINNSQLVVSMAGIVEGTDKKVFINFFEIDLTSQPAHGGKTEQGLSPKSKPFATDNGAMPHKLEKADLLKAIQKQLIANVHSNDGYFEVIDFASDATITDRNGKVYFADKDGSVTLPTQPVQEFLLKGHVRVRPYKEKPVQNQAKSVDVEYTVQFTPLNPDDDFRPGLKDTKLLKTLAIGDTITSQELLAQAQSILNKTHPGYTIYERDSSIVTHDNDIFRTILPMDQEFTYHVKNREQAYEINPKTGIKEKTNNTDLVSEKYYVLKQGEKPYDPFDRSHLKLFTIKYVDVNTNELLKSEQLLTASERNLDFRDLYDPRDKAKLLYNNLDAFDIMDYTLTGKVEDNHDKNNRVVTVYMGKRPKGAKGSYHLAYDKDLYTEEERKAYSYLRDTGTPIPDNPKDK

Streptococcus = assay: GAS bacterial viability reduction – luminescence, BacTiter-Glo, strain UMAA2166, counter-screen for streptokinase expression inhibitor project, dose response (AID 2477); format: functional, organism-based
[14] = Luminescence Cell-Based Dose Confirmation HTS to Identify Inhibitors of Polyadenylation.; format: functional
Bcl-2-like protein 10 [15] = target: T1, Bcl-2-like protein 10; assay: Concentration-response of Bcl-B inhibitors by biochemical FP with TR3 (AID 1243); format: functional
[16] = target: T3, Induced myeloid leukemia cell differentiation protein Mcl-1; assay: blockers of MCL1 binding to BIM peptide – biochemical, fluorescence polarization, BIM-BH3 peptide, 1536-well, dose response (AID 2217)
Bcl-2-like protein 1 = Bcl-2-like protein 1 (Homo sapiens, UniProt Q07817); assay: blockers of BCLXL peptide binding – biochemical, fluorescence polarization, 1536-well, selectivity assay for MCL1 inhibitor project, dose response (AID 2218)
Genome polyprotein [17] = target: Genome polyprotein (dengue virus type 2, UniProt P29990); assay: flavivirus cap methylation enzyme inhibition – biochemical, confirmation dose response, primary screen (AID 588689); format: functional
Caspase-6 = target: T7, Caspase-6 (Homo sapiens, UniProt P55212); assay: inhibition of CASP6 peptide cleavage – biochemical, VEID-R110 fluorescence, cherry-pick, dose response (AID 720632)
T7 sequence (P55212 whole entry): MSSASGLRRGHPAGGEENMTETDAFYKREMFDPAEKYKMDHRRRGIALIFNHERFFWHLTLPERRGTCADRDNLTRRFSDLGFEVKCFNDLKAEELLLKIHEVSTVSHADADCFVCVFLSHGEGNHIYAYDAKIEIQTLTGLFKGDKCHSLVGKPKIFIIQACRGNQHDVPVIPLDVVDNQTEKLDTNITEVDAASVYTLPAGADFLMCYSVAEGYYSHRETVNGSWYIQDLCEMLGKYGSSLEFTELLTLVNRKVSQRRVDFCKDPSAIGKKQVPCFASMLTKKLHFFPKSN

Aminopeptidase N = target: T8, Aminopeptidase N (Plasmodium falciparum FcB1/Columbia, UniProt O96935); assay: malaria alanyl aminopeptidase activity blockers – biochemical, fluorogenic H-Leu-NHMec substrate, 1536-well (AID 1445); design: species or system Plasmodium falciparum 3D7, 3D7
T8 sequence (O96935 whole entry): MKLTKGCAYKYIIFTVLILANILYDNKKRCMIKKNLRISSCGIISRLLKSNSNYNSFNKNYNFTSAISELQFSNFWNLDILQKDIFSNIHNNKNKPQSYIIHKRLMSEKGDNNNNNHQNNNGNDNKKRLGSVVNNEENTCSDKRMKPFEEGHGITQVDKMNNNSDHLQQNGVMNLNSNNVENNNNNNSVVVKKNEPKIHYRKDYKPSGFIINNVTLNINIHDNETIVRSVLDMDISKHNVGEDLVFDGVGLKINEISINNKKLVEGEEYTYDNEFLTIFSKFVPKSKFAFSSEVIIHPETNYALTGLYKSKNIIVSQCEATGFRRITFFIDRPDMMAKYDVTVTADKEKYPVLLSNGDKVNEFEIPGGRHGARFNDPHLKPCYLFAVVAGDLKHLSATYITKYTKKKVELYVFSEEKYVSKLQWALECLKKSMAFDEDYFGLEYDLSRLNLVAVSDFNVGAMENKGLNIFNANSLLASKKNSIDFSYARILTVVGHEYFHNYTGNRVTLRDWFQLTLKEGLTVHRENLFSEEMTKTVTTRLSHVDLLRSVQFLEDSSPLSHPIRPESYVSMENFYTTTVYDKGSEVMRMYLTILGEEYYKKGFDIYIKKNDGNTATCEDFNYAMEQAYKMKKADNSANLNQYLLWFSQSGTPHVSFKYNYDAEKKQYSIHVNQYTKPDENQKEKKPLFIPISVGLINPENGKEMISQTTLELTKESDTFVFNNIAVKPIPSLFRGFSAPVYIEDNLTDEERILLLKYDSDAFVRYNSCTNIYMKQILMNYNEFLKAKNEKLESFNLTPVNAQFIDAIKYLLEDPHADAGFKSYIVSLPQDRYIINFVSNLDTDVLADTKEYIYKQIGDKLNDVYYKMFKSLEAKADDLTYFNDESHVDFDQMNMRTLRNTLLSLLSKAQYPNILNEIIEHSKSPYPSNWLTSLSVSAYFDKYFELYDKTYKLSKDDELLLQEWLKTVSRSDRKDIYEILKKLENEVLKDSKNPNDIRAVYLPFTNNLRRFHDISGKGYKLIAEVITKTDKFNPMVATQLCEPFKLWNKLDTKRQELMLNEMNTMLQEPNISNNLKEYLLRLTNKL

[18] = mitochondrial function rescue without frataxin homolog – Friedreich's ataxia, plus single-dose screen, dose response (AID 1465); format: functional;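 also: yeast depleted of Yfh1p frataxin homolog grown on glycerol needing respiration; WST-1 tetrazolium dye reduction as measure of cellular dehydrogenase metabolic activity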
[19] = target: FAD-linked sulfhydryl oxidase ALR (Homo sapiens, UniProt P55789); assay: ALR-catalysed DTT oxidation blockers – biochemical, H2O2 detection, luminescence, cherry-pick, dose response (AID 493248)
[20] = target: 26S proteasome non-ATPase regulatory subunit 14 (Homo sapiens, UniProt O00487); assay: inhibition of proteasome subunit RPN11 – biochemical, fluorescence polarization, uHTS hits, confirmation (AID 602368); format: functional
[21] = target: 72 kDa type IV collagenase (Homo sapiens, UniProt P08253); assay: Dose Response validation of uHTS RPN11 inhibitor hits using a MMP-2 Fluorescence assay.; format: functional
Prothrombin = Prothrombin (Bos taurus, UniProt P00735); assay: thrombin protease inhibitors – biochemical, fluorescence polarization, uHTS hits, dose response (AID 602369); format: functional
Mucolipin-3 = Mucolipin-3 (Homo sapiens, UniProt Q8TDD5); assay: Dose response cell-based high-throughput screening assay for agonists of the transient receptor potential channel ML3 (TRPML3). [Related pubchem assays: 1526, 1424, 1448 ]; format: functional
Ion channel NompC = Ion channel NompC (Danio rerio, UniProt Q7T1G6); assay: Fluorescence counterscreen assay for TRPML3 agonists: dose response cell-based high-throughput screening assay to identify agonists of the transient receptor potential channel N1 (TRPN1). [Related pubchem assays: 1526, 1424, 1448 ]; format: functional

T2 sequence (Q9UBE0 whole entry): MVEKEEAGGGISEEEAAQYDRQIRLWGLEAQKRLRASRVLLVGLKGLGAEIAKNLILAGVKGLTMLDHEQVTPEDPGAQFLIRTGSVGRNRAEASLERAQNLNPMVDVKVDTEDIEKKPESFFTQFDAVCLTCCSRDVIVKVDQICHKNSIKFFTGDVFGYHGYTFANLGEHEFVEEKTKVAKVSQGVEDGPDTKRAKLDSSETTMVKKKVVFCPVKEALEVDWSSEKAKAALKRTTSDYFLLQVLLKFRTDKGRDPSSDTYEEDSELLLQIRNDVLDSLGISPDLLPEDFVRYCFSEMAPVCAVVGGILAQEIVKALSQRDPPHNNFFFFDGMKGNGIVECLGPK
T2 sequence (Q9UBT2 whole entry): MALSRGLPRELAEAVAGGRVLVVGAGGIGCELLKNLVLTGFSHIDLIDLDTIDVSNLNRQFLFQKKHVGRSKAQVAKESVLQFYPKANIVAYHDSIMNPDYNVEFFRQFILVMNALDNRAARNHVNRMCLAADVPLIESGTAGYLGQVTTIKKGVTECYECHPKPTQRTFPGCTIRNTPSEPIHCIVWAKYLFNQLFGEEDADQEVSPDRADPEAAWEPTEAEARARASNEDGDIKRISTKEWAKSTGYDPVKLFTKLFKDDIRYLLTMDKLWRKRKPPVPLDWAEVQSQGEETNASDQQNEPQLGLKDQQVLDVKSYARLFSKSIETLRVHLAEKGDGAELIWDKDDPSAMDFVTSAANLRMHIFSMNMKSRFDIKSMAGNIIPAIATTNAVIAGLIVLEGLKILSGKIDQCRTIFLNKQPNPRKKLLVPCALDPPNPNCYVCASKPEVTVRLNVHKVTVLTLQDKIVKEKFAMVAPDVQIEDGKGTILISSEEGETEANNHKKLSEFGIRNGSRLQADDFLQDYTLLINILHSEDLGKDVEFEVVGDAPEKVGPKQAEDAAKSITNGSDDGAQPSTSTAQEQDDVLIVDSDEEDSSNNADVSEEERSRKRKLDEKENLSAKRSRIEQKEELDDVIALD
T4 sequence (Q00975 whole entry): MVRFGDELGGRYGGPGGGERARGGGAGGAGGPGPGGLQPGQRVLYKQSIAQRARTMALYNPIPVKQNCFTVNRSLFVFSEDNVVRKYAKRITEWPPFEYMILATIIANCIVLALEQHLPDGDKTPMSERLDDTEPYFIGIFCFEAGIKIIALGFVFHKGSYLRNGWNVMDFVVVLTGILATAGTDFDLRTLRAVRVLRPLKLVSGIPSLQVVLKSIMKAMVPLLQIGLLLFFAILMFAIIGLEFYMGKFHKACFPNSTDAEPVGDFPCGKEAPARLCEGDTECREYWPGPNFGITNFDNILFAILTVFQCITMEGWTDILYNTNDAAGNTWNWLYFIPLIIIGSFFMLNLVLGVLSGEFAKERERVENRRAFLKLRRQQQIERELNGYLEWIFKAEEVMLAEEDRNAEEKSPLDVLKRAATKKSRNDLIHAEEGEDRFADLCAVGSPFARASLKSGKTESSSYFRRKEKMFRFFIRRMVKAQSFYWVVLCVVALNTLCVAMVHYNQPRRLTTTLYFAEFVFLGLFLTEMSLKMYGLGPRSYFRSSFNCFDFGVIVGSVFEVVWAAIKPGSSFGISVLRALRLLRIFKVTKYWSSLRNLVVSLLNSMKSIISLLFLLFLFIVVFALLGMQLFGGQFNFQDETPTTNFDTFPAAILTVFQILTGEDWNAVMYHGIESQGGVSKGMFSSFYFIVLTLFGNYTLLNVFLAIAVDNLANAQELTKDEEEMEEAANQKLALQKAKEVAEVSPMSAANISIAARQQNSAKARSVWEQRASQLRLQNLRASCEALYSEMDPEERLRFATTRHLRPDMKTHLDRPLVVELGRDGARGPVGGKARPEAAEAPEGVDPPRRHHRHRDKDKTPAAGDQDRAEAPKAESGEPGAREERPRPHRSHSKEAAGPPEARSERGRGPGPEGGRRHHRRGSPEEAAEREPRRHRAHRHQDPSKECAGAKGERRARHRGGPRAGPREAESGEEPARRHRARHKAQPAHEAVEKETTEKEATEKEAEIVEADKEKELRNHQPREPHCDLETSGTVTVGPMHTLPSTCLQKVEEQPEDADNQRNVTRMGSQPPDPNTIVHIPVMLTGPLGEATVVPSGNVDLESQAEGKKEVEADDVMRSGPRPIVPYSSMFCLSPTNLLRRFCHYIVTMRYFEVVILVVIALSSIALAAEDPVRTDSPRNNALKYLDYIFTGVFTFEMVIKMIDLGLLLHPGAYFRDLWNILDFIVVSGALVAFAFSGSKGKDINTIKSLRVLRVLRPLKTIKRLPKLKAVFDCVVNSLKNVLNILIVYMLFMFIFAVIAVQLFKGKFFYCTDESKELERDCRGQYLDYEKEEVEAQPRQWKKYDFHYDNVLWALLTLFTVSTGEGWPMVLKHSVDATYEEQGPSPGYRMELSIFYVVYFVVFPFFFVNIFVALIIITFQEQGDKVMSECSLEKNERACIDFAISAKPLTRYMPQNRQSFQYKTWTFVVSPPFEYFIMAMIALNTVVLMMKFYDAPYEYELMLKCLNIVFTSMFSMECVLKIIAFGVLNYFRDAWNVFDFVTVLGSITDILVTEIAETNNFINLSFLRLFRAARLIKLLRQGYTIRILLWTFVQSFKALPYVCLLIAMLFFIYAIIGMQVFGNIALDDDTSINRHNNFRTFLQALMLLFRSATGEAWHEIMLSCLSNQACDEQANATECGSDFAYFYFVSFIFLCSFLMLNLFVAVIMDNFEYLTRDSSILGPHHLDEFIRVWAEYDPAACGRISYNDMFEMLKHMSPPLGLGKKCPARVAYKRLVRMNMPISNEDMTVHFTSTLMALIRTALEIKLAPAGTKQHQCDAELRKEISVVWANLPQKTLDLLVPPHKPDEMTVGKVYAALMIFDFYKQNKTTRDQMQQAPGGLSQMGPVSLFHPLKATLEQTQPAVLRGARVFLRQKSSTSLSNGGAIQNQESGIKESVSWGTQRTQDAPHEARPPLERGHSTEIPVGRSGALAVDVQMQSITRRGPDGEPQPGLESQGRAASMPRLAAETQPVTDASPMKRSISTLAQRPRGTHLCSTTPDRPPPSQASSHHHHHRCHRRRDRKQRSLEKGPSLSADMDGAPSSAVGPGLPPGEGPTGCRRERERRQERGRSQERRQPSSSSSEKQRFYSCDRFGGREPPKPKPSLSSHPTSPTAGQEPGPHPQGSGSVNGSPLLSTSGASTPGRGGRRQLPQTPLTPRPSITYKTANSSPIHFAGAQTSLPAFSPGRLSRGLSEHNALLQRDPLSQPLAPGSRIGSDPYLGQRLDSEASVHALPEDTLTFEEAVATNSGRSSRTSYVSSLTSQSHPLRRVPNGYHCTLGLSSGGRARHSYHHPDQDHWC
T4 sequence (Q02410 whole entry): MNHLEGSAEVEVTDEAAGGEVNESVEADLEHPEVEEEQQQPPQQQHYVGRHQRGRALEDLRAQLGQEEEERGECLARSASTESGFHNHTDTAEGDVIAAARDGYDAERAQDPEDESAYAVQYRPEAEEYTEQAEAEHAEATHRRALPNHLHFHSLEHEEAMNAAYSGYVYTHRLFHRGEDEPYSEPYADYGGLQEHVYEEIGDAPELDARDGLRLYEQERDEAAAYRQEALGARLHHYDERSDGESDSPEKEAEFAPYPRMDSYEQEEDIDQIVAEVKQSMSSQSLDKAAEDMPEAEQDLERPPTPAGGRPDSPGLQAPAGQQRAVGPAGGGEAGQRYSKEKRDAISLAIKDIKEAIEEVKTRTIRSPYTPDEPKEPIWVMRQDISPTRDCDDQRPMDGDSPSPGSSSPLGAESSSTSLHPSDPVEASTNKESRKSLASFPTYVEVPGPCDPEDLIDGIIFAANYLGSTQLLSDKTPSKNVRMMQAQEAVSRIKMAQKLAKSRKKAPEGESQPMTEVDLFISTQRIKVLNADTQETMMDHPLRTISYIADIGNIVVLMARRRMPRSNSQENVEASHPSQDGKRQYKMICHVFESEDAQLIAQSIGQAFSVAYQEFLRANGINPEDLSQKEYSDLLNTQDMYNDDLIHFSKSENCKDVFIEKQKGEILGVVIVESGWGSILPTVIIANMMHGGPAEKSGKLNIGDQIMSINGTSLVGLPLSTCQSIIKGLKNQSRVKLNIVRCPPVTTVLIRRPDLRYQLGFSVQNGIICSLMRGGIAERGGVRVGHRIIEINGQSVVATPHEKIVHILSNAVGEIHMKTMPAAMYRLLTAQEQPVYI
T3 sequence (Q07820 whole entry): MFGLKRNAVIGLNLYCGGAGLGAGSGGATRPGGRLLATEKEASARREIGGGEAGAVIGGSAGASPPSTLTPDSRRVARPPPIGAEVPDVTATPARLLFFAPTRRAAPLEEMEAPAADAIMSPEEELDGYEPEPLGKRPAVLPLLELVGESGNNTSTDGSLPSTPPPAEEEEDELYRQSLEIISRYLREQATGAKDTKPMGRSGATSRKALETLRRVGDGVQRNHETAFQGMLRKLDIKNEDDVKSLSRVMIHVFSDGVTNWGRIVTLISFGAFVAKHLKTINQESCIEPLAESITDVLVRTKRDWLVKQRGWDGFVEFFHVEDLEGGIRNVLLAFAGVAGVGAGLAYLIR
Sequence of Genome polyprotein (Hepatitis C virus, UniProt Q2Q167) (Q2Q167 whole entry): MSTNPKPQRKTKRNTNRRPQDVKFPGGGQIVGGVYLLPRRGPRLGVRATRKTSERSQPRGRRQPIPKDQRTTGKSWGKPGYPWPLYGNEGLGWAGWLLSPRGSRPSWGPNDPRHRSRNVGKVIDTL
Sequence of FAD-linked sulfhydryl oxidase ALR (P55789 whole entry): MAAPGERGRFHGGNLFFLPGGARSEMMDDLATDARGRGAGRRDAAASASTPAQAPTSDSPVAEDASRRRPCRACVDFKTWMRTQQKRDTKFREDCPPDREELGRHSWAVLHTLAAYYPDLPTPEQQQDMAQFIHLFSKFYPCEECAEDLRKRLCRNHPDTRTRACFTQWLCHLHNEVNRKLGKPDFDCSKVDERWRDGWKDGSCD

## CCn1nc(C)c(CN2CCCC(CO)(Cc3ccccc3)C2)c1C (centres undefined)
[1]
  CC50: > 50 µM (active)
cells
  IC50: 42.9 µM (active)

## COc1ccccc1CNC(=O)COC(=O)c1cc(-c2ccco2)nc2ccccc12
Genome polyprotein [2]
  IC50: > 49.8 µM (not active)
Bcl-2-like protein 10 [3]
  IC50: 10.7 µM (active)
SUMO-activating enzyme [4]
  IC50: 5.42 µM (active)
SUMO-activating enzyme [5]
  IC50: 10.6 µM (active)
[6]
  IC50: 5.79 µM (active)
[7]
  IC50: 2.04 µM (active)
SUMO E1/E2
  IC50: 5.8 µM (active)
[8]
  IC50: 7.83 µM (active)
[9]
  IC50: 22.7 µM (active)
[10]
  IC50: 7.11 µM (active)
Protein Tat
  IC50: > 100 µM (active)
[11]
  CC50: > 40 µM (active)

## COc1ccccc1C(=O)Nc1ccc(-c2nnn(CC(=O)NCc3ccco3)n2)cc1
SUMO-activating enzyme [4]
  IC50: 27.2 µM (active)
[12]
  IC50: > 0.608 µM (active)
SUMO-activating enzyme [5]
  IC50: 11.8 µM (active)
[13]
  IC50: > 111 µM (not active)

## N#Cc1cc(NC(=O)c2ccc(Cl)cc2)ccc1Sc1ccccc1
Streptokinase A
  EC50: 3.25 µM (active)
Streptococcus
  EC50: 98.8 µM (active)

## CC(C)CC(Nc1ncnc2scc(-c3ccccc3)c12)C(=O)O (centres undefined)
[14]
  EC50: > 120 µM (not active)

## O=C(O)C1C2CC=CC2c2cc(Oc3ccccc3)cc3c2N1CC1CC=CC31 (centres undefined)
Bcl-2-like protein 10 [15]
  EC50: 4.13 µM (active)

## O=C(O)CN1C(=O)/C(=C\c2cc([N+](=O)[O-])ccc2OCc2ccccc2Cl)SC1=S
[16]
  IC50: > 109 µM (not active)
Bcl-2-like protein 1
  IC50: > 109 µM (not active)
Genome polyprotein [17]
  IC50: 31.1 µM (active)
Caspase-6
  AC50: 12.9 µM (active)

## CCn1c(C)cc(/C=C2/SC(=S)N(CC(=O)O)C2=O)c1C
Aminopeptidase N
  IC50: 75.5 µM (active)
[18]
  EC50: > 100 µM (active)
[19]
  AC50: 0.776 µM (active)
[20]
  IC50: 28.6 µM (active)
[21]
  IC50: > 100 µM (inactive)
Prothrombin
  IC50: 32.9 µM (active)

## S=C(NC1CCCCC1)N1CCOCCOCCN(C(=S)NC2CCCCC2)CCOCC1
Mucolipin-3
  EC50: 20.4 µM (not active)
Ion channel NompC
  EC50: > 29.9 µM (not active)
